Assay results as given in patent US11498899B2, “Nitrone herbicides” (FMC Corporation, priority 2016, dated 2022).

Columns and labels:
[1] = test system: ducksalad (Heteranthera limosa); experiment: Test B flooded paddy test, visual rating 0-100; conditions: Flood, 250 g ai/ha, applied to paddy water, rated after 13 to 15 days
[2] = test system: barnyardgrass (Echinochloa crus-galli); experiment: Test A postemergence, visual injury rating 0-100; format: in vivo; conditions: 0 to 100 scale
Text: (§1) Seeds of plant species selected from barnyardgrass (Echinochloa crus-galli), kochia (Kochia scoparia), ragweed (common ragweed, Ambrosia elatior), ryegrass, Italian (Italian ryegrass, Lolium multiflorum), foxtail, giant (giant foxtail, Setaria faberii), foxtail, green (green foxtail, Setaria viridis), and pigweed (Amaranthus retroflexus) were planted into a blend of loam soil and sand and treated preemergence with a directed soil spray using test chemicals formulated in a non-phytotoxic solvent mixture which included a surfactant.
(§2) At the same time, plants selected from these weed species and also wheat (Triticum aestivum), corn (Zea mays), blackgrass (Alopecurus myosuroides), and galium (catchweed bedstraw, Galium aparine) were planted in pots containing the same blend of loam soil and sand and treated with postemergence applications of test chemicals formulated in the same manner. Plants ranged in height from 2 to 10 cm and were in the one- to two-leaf stage for the postemergence treatment. Treated plants and untreated controls were maintained in a greenhouse for approximately 10 days, after which time all treated plants were compared to untreated controls and visually evaluated for injury. […] A dash (-) response means no test result.

[3] = test system: blackgrass (Alopecurus myosuroides); experiment: Test A postemergence, visual injury rating 0-100; format: in vivo; conditions: 0 to 100 scale
Text: as §1, §2

[4] = test system: ryegrass, Italian (Italian ryegrass, Lolium multiflorum); experiment: Test A postemergence, visual injury rating 0-100; format: in vivo; conditions: 0 to 100 scale
Text: as §1, §2

kochia (Kochia scoparia) [5] = experiment: Test A postemergence, visual injury rating 0-100; format: in vivo; conditions: 0 to 100 scale
Text: as §1, §2

[6] = test system: wheat (Triticum aestivum); experiment: Test A postemergence, visual injury rating 0-100; format: in vivo; conditions: 0 to 100 scale
Text: as §1, §2

[7] = test system: ragweed (common ragweed, Ambrosia elatior); experiment: Test A postemergence, visual injury rating 0-100; format: in vivo; conditions: 0 to 100 scale
Text: as §1, §2

[8] = test system: pigweed (Amaranthus retroflexus); experiment: Test A postemergence, visual injury rating 0-100; format: in vivo; conditions: 0 to 100 scale
Text: as §1, §2

[9] = test system: foxtail, giant (giant foxtail, Setaria faberii); experiment: Test A postemergence, visual injury rating 0-100; format: in vivo; conditions: 0 to 100 scale
Text: as §1, §2

[10] = test system: galium (catchweed bedstraw, Galium aparine); experiment: Test A postemergence, visual injury rating 0-100; format: in vivo; conditions: 0 to 100 scale
Text: as §1, §2

corn (Zea mays) = experiment: Test A postemergence, visual injury rating 0-100; format: in vivo; conditions: 0 to 100 scale
Text: as §1, §2

rice (Oryza sativa) = experiment: Test B flooded paddy test, visual rating 0-100 (0 no effect, 100 complete control); conditions: Flood, 250 g ai/ha, applied to paddy water, rated after 13 to 15 days
[11] = test system: barnyardgrass (Echinochloa crus-galli); experiment: Test A preemergence, visual injury rating 0-100 (0 no effect, 100 complete control); format: in vivo; conditions: for Barnyardgrass plant response rating (0 to 100 scale): 125 g ai/ha; for Barnyardgrass plant response rating: 500 g ai/ha, 0 to 100 scale
Text: as §1, §2

[12] = test system: ryegrass, Italian (Italian ryegrass, Lolium multiflorum); experiment: Test A preemergence, visual injury rating 0-100; format: in vivo; conditions: for Ryegrass, Italian plant response rating (0 to 100 scale): 125 g ai/ha; for Ryegrass, Italian plant response rating: 500 g ai/ha, 0 to 100 scale
Text: as §1, §2

kochia (Kochia scoparia) [13] = experiment: Test A preemergence, visual injury rating 0-100; format: in vivo; conditions: for Kochia plant response rating (0 to 100 scale): 125 g ai/ha; for Kochia plant response rating: 500 g ai/ha, 0 to 100 scale
Text: as §1, §2

[14] = test system: ragweed (common ragweed, Ambrosia elatior); experiment: Test A preemergence, visual injury rating 0-100; format: in vivo; conditions: for Ragweed plant response rating (0 to 100 scale): 125 g ai/ha; for Ragweed plant response rating: 500 g ai/ha, 0 to 100 scale
Text: as §1, §2

[15] = test system: pigweed (Amaranthus retroflexus); experiment: Test A preemergence, visual injury rating 0-100; format: in vivo; conditions: for Pigweed plant response rating (0 to 100 scale): 125 g ai/ha; for Pigweed plant response rating: 500 g ai/ha, 0 to 100 scale
Text: as §1, §2

[16] = test system: foxtail, giant (giant foxtail, Setaria faberii); experiment: Test A preemergence, visual injury rating 0-100; format: in vivo; conditions: for Foxtail, Giant plant response rating (0 to 100 scale): 125 g ai/ha; for Foxtail, Giant plant response rating: 500 g ai/ha, 0 to 100 scale
Text: as §1, §2

[17] = test system: barnyardgrass (Echinochloa crus-galli); experiment: Test B flooded paddy test, visual rating 0-100; conditions: Flood, 250 g ai/ha, applied to paddy water, rated after 13 to 15 days

| Compound | Ducksalad plant response rating (0 to 100 scale) [1] | Barnyardgrass plant response rating ([2]; 125 g ai/ha) | Barnyardgrass plant response rating ([2]; 500 g ai/ha) | Blackgrass plant response rating ([3]; 125 g ai/ha) | Blackgrass plant response rating ([3]; 500 g ai/ha) | Ryegrass, Italian plant response rating ([4]; 125 g ai/ha) | Ryegrass, Italian plant response rating ([4]; 500 g ai/ha) | Kochia plant response rating (kochia (Kochia scoparia) [5]; 125 g ai/ha) | Kochia plant response rating (kochia (Kochia scoparia) [5]; 500 g ai/ha) | Wheat plant response rating ([6]; 125 g ai/ha) | Wheat plant response rating ([6]; 500 g ai/ha) | Ragweed plant response rating ([7]; 500 g ai/ha) | Pigweed plant response rating ([8]; 125 g ai/ha) | Pigweed plant response rating ([8]; 500 g ai/ha) | Foxtail, Giant plant response rating ([9]; 125 g ai/ha) | Foxtail, Giant plant response rating ([9]; 500 g ai/ha) | Galium plant response rating ([10]; 125 g ai/ha) | Galium plant response rating ([10]; 500 g ai/ha) | Corn plant response rating (corn (Zea mays); 125 g ai/ha) | Corn plant response rating (corn (Zea mays); 500 g ai/ha) | also measured |
| --- | --- | --- | --- | --- | --- | --- | --- | --- | --- | --- | --- | --- | --- | --- | --- | --- | --- | --- | --- | --- | --- |
| CC1=[N+]([O-])C(C)(C(=O)Nc2cccc(F)c2F)C(c2ccc(C(F)(F)F)cc2)C1 (racemic) [Compound 1] | 70 | 70 | 90 | 20 | 70 | 0 | 20 | 0 | 70 | 30 | 70 | 30 | 20 | 60 | 0 | 80 | 80 | 80 | 0 | 70 | Ragweed plant response rating ([7]; 125 g ai/ha): 0; Rice plant response rating (0 to 100 scale) (rice (Oryza sativa)): 50; Barnyardgrass plant response rating (0 to 100 scale) [11]: 90; Barnyardgrass plant response rating [11]: 100; Ryegrass, Italian plant response rating (0 to 100 scale) [12]: 0; Ryegrass, Italian plant response rating [12]: 60; Kochia plant response rating (0 to 100 scale) (kochia (Kochia scoparia) [13]): 70; Kochia plant response rating (kochia (Kochia scoparia) [13]): 90; Ragweed plant response rating (0 to 100 scale) [14]: 0; Ragweed plant response rating [14]: 30; Pigweed plant response rating (0 to 100 scale) [15]: 20; Pigweed plant response rating [15]: 80; Foxtail, Giant plant response rating (0 to 100 scale) [16]: 100; Foxtail, Giant plant response rating [16]: 100; Barnyardgrass plant response rating (0 to 100 scale) [17]: 70 |
| CC1=[N+]([O-])C(C(=O)Nc2cccc(F)c2F)C(c2cccc(Cl)c2)C1 (racemic) [Compound 3] | 100 | 80 | 90 | 30 | 80 | 0 | 70 | 20 | 60 | 30 | 80 | 50 | 0 | 20 | 80 | 90 | 60 | 70 | 40 | 90 | Rice plant response rating (0 to 100 scale) (rice (Oryza sativa)): 0; Barnyardgrass plant response rating (0 to 100 scale) [11]: 100; Barnyardgrass plant response rating [11]: 100; Ryegrass, Italian plant response rating (0 to 100 scale) [12]: 20; Ryegrass, Italian plant response rating [12]: 50; Kochia plant response rating (0 to 100 scale) (kochia (Kochia scoparia) [13]): 30; Kochia plant response rating (kochia (Kochia scoparia) [13]): 90; Ragweed plant response rating (0 to 100 scale) [14]: 30; Ragweed plant response rating [14]: 70; Pigweed plant response rating (0 to 100 scale) [15]: 20; Pigweed plant response rating [15]: 70; Foxtail, Giant plant response rating (0 to 100 scale) [16]: 100; Foxtail, Giant plant response rating [16]: 100; Barnyardgrass plant response rating (0 to 100 scale) [17]: 80 |
